Laboratory results taken from patent publication US6916843B1, “Anti-inflammatory actions of cytochrome P450 expoxygenase-derived eicosanoids” (The United States of America as represented by the …, priority 1999, dated 2005).
Entries after “also recorded” stand apart in the source; their conditions may differ. Values belong to the compound of their own block, whether it stands above or below them. Ends that are not written are not given here.

What was measured:
[1] = system: bovine aortic endothelial cells (BAECs); assay: Hypoxia-reoxygenation-induced cell injury in BAECs (cell number, LDH release, trypan blue); assay type: cell-based; conditions: for hypoxia-reoxygenation-induced cell injury, epoxide hydrolase inhibitors: DCU 10 μmol/L and elaidamide 10 μmol/L added together prior to hypoxia
Method: Effects of P450-derived arachidonic acid metabolites on hypoxia-reoxygenalion-induced injury in BAECs. BAECs, either untransfected, or 48 hours after transfection with pcDNA3.1/GFP or pcDNA3.1/CYP2J2, or 10 min after treatment with eicosanoids, epoxide hydrolase inhibitors or vehicle, were exposed to hypoxia (95% nitrogen plus 5% carbon dioxide) for 24 hours, followed by reoxygenation (95% air plus 5% carbon dioxide) for 4 hours using an environmental chamber within a 37° C. incubator. Cells maintained under continuous (28 hours) normoxic conditions served as controls.
EETs were prepared by total chemical synthesis as previously described (Corey el al., 102 J. Am. Chem. Soc. 1433-1435 (1980), Falck et al., 23 Tetrahedron Lett. 1755-1756 (1982)). DHETs were prepared by chemical hydration of EETs as described by Capdevila et al., 187 Methods Enzymol. 386-394 (1990). Synthetic EETs and DHETs were purified by reverse-phase HPLC prior to use. BAECs, grown to ˜85% confluency, were treated with either synthetic [11,12]-EET, [11,12]-DHET, or [14,15]-EET in ethanol vehicle (1 μmol/L each, final concentration) for 10 min prior to exposure to hypoxia-reoxygenation. […] Cells treated with vehicle alone served as controls.
After hypoxia-reoxygenation, the cell number was determined using a hemocytometer and the degree of cell injury was assessed by measuring lactate dehydrogenase release into the culture medium using the CytoTox 96 Non-Radioactive Cytotoxicity Assay Kit (Promega, Madison, Wis.) and by counting the number of trypan blue dye stained cells. Data are expressed as a percentage of values obtained from control cells maintained under normoxic conditions.

NF-κB = NF-κB heterologous promoter (pκB.Luc) luciferase reporter in bovine endothelial cells; assay type: cell-based; conditions: 100 μM
Method: (§1) FIG. 2 is a set of bar graphs of cell-surface enzyme immunoassays. […] The difference between treatment with TNF-α alone and in the presence of [11,12]-EET were statistically significant (*p<0.05, **p<0.01), OD, optical density. […] After stimulation with TNF-α (10 ng/ml) in the presence or absence of EET, promoter activity was determined relative to basal activity. *p<0.01 vs. TNF-α alone.
(§2) To localize cis-acting elements in the VCAM-1 promoter that might mediate the inhibitory effects of [11,12]-EET, we transiently transfected bovine aortic endothelial cells with a −755 bp VCAM-1 promoter construct (DeCaterina et al., 96 J. Clin. Invest. 60 (1995)). Stimulation with TNF-α induced a 13-fold increase in relative VCAM-1 promoter activity that was abolished by cotreatment with [11,12]-EET. […] To confirm that the tandem κB sites in the VCAM-1 promoter are repressed by [11,12]-EET we subcloned them into a heterologous promoter construct containing the SV40 enhancer linked to the luciferase reporter gene (pκB.Luc). Stimulation of transfected endothelial cells with TNF-α induced a 6-fold increase in pκB.Luc promoter activity that was abolished by co-treatment with [11,12]-EET, but not [14,15]-EET (FIG. 2C). […] Compared to transfection with the empty pcDNA3.1 vector, overexpression of CYP2J2 decreased TNF-induced VCAM-1 and pκB.Luc promoter activity by 70-80% which were reversed in the presence of SKF525A (FIG. 2C). Neither transfection with CYP2J2 cDNA alone nor treatment with SKF525A alone affected basal promoter activity.

VCAM-1 promoter = VCAM-1 promoter construct activity in transiently transfected bovine aortic endothelial cells; assay type: cell-based; conditions: 100 μM
Text: as §2, with “-755” for “−755”, “SK[…]” for “SKF525A”

CYP2J2 = biological target: T1, CYP2J2 (Homo sapiens, UniProt P51589); assay: Arachidonic acid epoxygenase metabolite formation in CYP2J2-transfected bovine aortic endothelial cells (HPLC)
T1 construct: The CYP2J2 cDNA (1.9 kb) or GFP cDNA (0.75 kb) were subcloned into the plasmid pcDNA3.1; expressed in transfected cells; host or cells: bovine aortic endothelial cells (BAECs), transient transfection with pcDNA3.1/CYP2J2
T1 sequence (P51589 1-502): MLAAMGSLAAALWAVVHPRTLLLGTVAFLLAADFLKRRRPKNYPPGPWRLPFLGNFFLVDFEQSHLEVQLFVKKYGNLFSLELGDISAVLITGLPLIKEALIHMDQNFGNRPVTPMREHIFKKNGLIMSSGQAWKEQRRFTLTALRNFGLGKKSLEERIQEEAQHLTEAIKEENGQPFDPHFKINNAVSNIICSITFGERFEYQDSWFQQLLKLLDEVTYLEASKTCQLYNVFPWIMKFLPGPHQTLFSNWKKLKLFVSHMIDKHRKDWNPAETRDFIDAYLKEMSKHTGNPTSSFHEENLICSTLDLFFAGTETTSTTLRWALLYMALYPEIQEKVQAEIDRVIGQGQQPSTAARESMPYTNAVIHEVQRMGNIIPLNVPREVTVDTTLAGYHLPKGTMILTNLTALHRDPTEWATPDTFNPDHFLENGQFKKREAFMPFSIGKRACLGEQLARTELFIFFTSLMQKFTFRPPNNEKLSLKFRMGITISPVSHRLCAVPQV
Method: To study the formation of EETs by CYP2J2 in endothelial cells, we measured EET synthesis from bovine endothelial cells transfected with CYP2J2 cDNA. Early passage bovine aortic endothelial cells were grown to 60-70% confluence and transfected with either pcDNA3.1 or pcDNA3.1/CYP2J2 using Fugene™ 6 reagent (Boehringer Mannheim Corp.) according to the manufacturer's instructions. Using this method, the transfection efficiency was 10-20%. Forty-eight hours post-transfection, cells were washed twice with phosphate-buffered saline and incubated with freshly purified [^3H]arachidonic acid (185 Ci/mmol, 4-5 μCi/175 mm^2 flask) and unlabeled arachidonic acid (10 μM) was added before addition of arachidonic acid. At various time points, the media and cells were removed and extracted with diethyl ether. The combined organic phases were dried under a nitrogen stream, resolved by reverse-phase high performance liquid chromatography (HPLC) and quantified by liquid scintillation as described by Wu et al., 271 J. Biol. Chem. 3460 (1996). […]
These control GFP-transfected cells metabolized radiolabeled arachidonic acid to epoxygenase metabolites (EETs and DHETs) at a rate of ˜8 pmol/min/10^7 cells (FIG. 6). Endothelial cell arachidonic acid metabolism was determined as follows: Forty-eight hours after transfection with either pcDNA3.1/GFP or pcDNA3.1/CYP2J2, BAECs were incubated with freshly purified [5, 6, 8, 9, 11, 12, 14, 15-^3H]arachidonic acid (185 Ci/mmol, 4-5 μCi/175-mm^2 flask) in serurm-free culture medium at 37° C. for 30-120 min. […] The BAECs and culture medium were then collected and the reaction products extracted into ethyl ether, dried under a nitrogen stream, analyzed by reverse-phase HPLC, and quantified by on-line liquid scintillation using a Radiomatic Flo-One β detector (Radiomatic Instruments, Tampa, Fla.) as described (Wu et al., 271 J. Biol. Chem. 12551 (1996), Node et al., 285 Science 1276-1279 (1999)). […]

IκB kinase (IKK) = assay: IKK activity assay with GST-IκB-α substrate, TNF-α-stimulated endothelial cells; assay type: biochemical, human; conditions: 100 nM, TNF-α 10 ng/ml, 15 min
Method: A set of gel shift assays was performed. […] In some assays, [11,12]-EET (100 nM) was also added directly to the IKK assay (in vitro). As a control for nonspecific phosphorylation, the assay was performed without the addition of immunoprecipitated IKK (no enzyme) or in the presence of a IκB-α mutant (ΔSer 32, Ser 36→Thr) as substrate. The assay was performed three times with similar results.
Specificity of IKB was determined by the complete absence of phosphorylation when the mutated IκB-α substrate, GST-1κB-α (Δ32,36: S→T) which cannot be phosphorylated at serine residues 32 and 36, was substituted for wild-type GST-IκB-α.

VCAM-1 expression = assay: Cell-surface enzyme immunoassay of cytokine-induced VCAM-1 expression in endothelial cells; assay type: cell-based, human; conditions: KCa channel blocker 100 nM
Method: as §1
To determine the biological effects of EETs, we treated tumor necrosis factor alpha (TNF-α)-stimulated human endothelial cells with physiological relevant concentrations (1-100 nM) of [5,6]-EET, [8,9]-EET, [11,12]-EET, [14,15]-EET, [11,12]-DHET.

Compound: O=C(NC1CCCCC1)NC1CCCCC1 [DCU, dicyclohexylurea, reference compound]
hypoxia-reoxygenation-induced cell injury, epoxide hydrolase inhibitors [1]: significantly attenuates
hypoxia-reoxygenation-induced cell injury, epoxide hydrolase inhibitors ([1]; listed as dicyclohexylurea): limits

reversal of CYP2J2-mediated decrease of pκB.Luc promoter activity (NF-κB): reversed
reversal of CYP2J2-mediated decrease of VCAM-1 promoter activity (VCAM-1 promoter): reversed
inhibition of increased epoxygenase activity of CYP2J2-transfected BAECs (CYP2J2; 100 μmol/L): inhibited
inhibition of formation of epoxygenase metabolites by CYP2J2 transfected cells (CYP2J2; inhibitor 100 μM): > 80%
Compound: CCCC(C(=O)OCCN(CC)CC)(c1ccccc1)c1ccccc1 [SKF525A, reference compound]

Compound: CCCCC/C=C\C/C=C\C/C=C\CC1OC1CCCC(=O)O (stereo not drawn) [[5,6]-EET]
inhibition of TNF-α-induced IKK activity (IκB kinase (IKK)): to a lesser extent

Compound: CCCCC/C=C\C/C=C\CC1OC1C/C=C\CCCC(=O)O (stereo not drawn) [[8,9]-EET]
inhibition of TNF-α-induced IKK activity (IκB kinase (IKK)): to a lesser extent

Compound: CCCCC/C=C\CC(O)C(O)C/C=C\C/C=C\CCCC(=O)O (stereo not drawn) [[11,12]-DHET]
hypoxia-reoxygenation-induced cell injury, number of trypan blue stained cells ([1]; 1 μmol/L, added 10 min prior to hypoxia (24 h hypoxia, 4 h reoxygenation)): active in attenuating; also recorded: significantly attenuates

Compound: CCCCCCCC/C=C/CCCCCCCC(N)=O [elaidamide, reference compound]
hypoxia-reoxygenation-induced cell injury, epoxide hydrolase inhibitors [1]: limits; also recorded: significantly attenuates

Compound: charybodotoxin [reference compound]
block of the inhibitory effect of [11,12]-EET on TNF-α-induced VCAM-1 expression (VCAM-1 expression): did not block

Compound: iberiotoxin (QFTDVDCSVSKECWSVCKDLFGVDRGKCMGKKCRCYQ; not fully specified (residue 1, bridges); cysteine pairing not given here; UniProt P24663 1-37, looked up) [reference compound]
block of the inhibitory effect of [11,12]-EET on TNF-α-induced VCAM-1 expression (VCAM-1 expression): did not block
